Results: patent US10077247B2, “Tricyclic spiro compound” (ONO PHARMACEUTICAL CO., LTD., priority 2015, dated 2018)

Key:
rat EP4 receptor = rat EP4 receptor (Rattus norvegicus (Rat), UniProt P43114); assay: EP4 antagonistic activity measurement using prostanoid receptor subtype expressing cells (cAMP); type: cell-based; details: CHO cells expressing rat EP4 receptor; inhibition of cAMP production by PGE2 10 nM
Procedure: CHO cells expressing rat EP4 receptor subtypes were prepared according to the methods of Nishigaki et al. (FEBS Letters, Vol. 364, p. 339-341, 1995), and used for experiment. Cultured subconfluent cells were detached, and suspended in an assay medium (MEM containing 1 mmol/L IBMX, 1% HSA) in a concentration of 1×10^6 cells/mL. For reaction, PGE2 was added to the cell suspension (25 μL) in a final concentration of 10 nmol/L, either alone or as a 25-μL PGE2 solution containing the test compound. After 30 minutes of reaction at room temperature, the amount of cAMP in the cells was quantified according to the method in the descriptions of the cAMP assay kit (CISBIO).
The antagonistic effect (IC50 value) of the test compound was calculated as a value that represents an inhibition rate against a reaction with PGE2 alone at 10 nM, a concentration that produces a submaximal cAMP producing effect.

[1] = Pharmacokinetics test (hepatic microsome stability test); details: human hepatic microsome 1 mg/mL, 37° C., 60 min, 1 μmol/L

Sequence of rat EP4 receptor (P43114 whole entry): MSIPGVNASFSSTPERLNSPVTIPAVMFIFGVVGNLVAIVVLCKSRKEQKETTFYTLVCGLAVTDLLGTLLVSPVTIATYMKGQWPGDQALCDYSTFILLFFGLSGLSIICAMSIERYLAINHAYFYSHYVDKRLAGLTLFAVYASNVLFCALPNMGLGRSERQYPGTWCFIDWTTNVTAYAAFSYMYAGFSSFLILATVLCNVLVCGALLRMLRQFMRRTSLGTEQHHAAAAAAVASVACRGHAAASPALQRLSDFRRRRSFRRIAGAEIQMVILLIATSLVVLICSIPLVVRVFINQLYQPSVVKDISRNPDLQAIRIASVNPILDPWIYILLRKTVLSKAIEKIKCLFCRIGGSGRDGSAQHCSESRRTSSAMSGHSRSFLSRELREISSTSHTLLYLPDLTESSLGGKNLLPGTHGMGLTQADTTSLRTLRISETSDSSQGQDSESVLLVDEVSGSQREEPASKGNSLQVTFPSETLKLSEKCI

SMILES | IC50 (rat EP4 receptor) | Remaining rate (%) [1]
N#Cc1ccc(CCCC(=O)O)c(NC(=O)[C@@H]2C[C@]23COc2ccc(-c4cccnc4)cc23)c1 [Example 36, 4-[4-Cyano-2-({[(2′R,3S)-5-(3-pyridinyl)spiro[1-benzofuran-3,1′-cyclopropan]-2′-yl]carbony}amino)phenyl]butanoic acid] | 4.5 nM | 93%
Cn1cc(-c2ccc3c(c2)[C@]2(CCO3)C[C@H]2C(=O)Nc2cc(C#N)ccc2CCCC(=O)O)nn1 [Example 10-4, 4-[4-Cyano-2-({[(2′R,4S)-6-(1-methyl-1H-1,2,3-triazol-4-yl)-2,3-dihydrospiro[chromene-4,1′-cyclopropan]-2′-yl]carbonyl}amino)phenyl]butanoic acid] | 3.5 nM | 73%
N#Cc1ccc(CCCC(=O)O)c(NC(=O)[C@@H]2C[C@]23CCOc2ccc(N4CCCC4=O)cc23)c1 [Example 7-10, 4-[4-Cyano-2-({[(2′R,4S)-6-(2-oxo-1-pyrrolidinyl)-2,3-dihydrospiro[chromene-4,1′-cyclopropan]-2′-yl]carbonyl}amino)phenyl]butanoic acid] | 8.6 nM | 89%
COc1ccc(-c2ccc3c(c2)[C@]2(CCO3)C[C@H]2C(=O)Nc2cc(C#N)ccc2CCCC(=O)O)cn1 [Example 7-13, 4-[4-Cyano-2-({[(2′R,4S)-6-(6-methoxy-3-pyridinyl)-2,3-dihydrospiro[chromene-4, 1′-cyclopropan]-2′-yl]carbonyl}amino)phenyl]butanoic acid] | 3.5 nM | 95%
CNC(=O)c1ccc2c(c1)[C@]1(CC2)C[C@H]1C(=O)Nc1cc(C#N)ccc1CCCC(=O)O [Example 18-1, 4-[4-Cyano-2-({[(1R,2R)-6′-(methylcarbamoyl)-2′,3′-dihydrospiro[cyclopropane-1, 1′-inden]-2-yl]carbonyl}amino)phenyl]butanoic acid] | 1.2 nM | 90%
COC[C@H](C)NC(=O)c1ccc2c(c1)[C@]1(CCO2)C[C@H]1C(=O)Nc1cc(C#N)ccc1CCCC(=O)O [Example 2-4, 4-[4-Cyano-2-({[(2′R,4S)-6-{[(2S)-1-methoxy-2-propanyl]carbamoyl}-2,3-dihydrospiro[chromene-4,1′-cyclopropan]-2′-yl]carbonyl}amino)phenyl]butanoic acid] | 3.3 nM | 86%
N#Cc1ccc(CCCC(=O)O)c(NC(=O)[C@@H]2C[C@]23CCOc2ccc(-c4cnc5[nH]ccc5c4)cc23)c1 [Example 7-19, 4-[4-Cyano-2-({[(2′R,4S)-6-(1H-pyrrolo[2,3-b]pyridin-5-yl)-2,3-dihydrospiro[chromene-4,1′-cyclopropan]-2′-yl]carbonyl}amino)phenyl]butanoic acid] | 4.5 nM | 100%
COCCNC(=O)c1ccc2c(c1)[C@]1(CO2)C[C@H]1C(=O)Nc1cc(C#N)ccc1CCCC(=O)O [Example 37-2, 4-{4-Cyano-2-[({(2′R,3S)-5-[(2-methoxyethyl)carbamoyl]spiro[1-benzofuran-3,1′-cyclopropan]-2′-yl}carbonyl)amino]phenyl}butanoic acid] | 6.2 nM | 87%
CC(C)(C)NC(=O)c1ccc2c(c1)[C@]1(CCO2)C[C@H]1C(=O)Nc1cc(C#N)ccc1CCCC(=O)O [Example 2-3, 4-{4-Cyano-2-[({(2′R, 4S)-6-[(2-methyl-2-propanyl)carbamoyl]-2,3-dihydrospiro[chromene-4,1′-cyclopropan]-2′-yl}carbonyl)amino]phenyl}butanoic acid] | 3.5 nM | 91%
COCCNC(=O)c1ccc2c(c1)OCC[C@]21C[C@H]1C(=O)Nc1cc(C#N)ccc1CCCC(=O)O [Example 28-2, 4-{4-Cyano-2-[({(2′R,4S)-7-[(2-methoxyethyl)carbamoyl]-2,3-dihydrospiro[chromene-4,1′-cyclopropan]-2′-yl}carbonyl)amino]phenyl}butanoic acid] | 6.9 nM | 100%
CNC(=O)c1cc2c(cc1F)OCC[C@]21C[C@H]1C(=O)Nc1cc(C#N)ccc1CCCC(=O)O [Example 20-1] | 8.5 nM | 88%
Cc1nnc(-c2ccc3c(c2)[C@]2(CCO3)C[C@H]2C(=O)Nc2cc(C#N)ccc2CCCC(=O)O)o1 [Example 3, 4-[4-Cyano-2-({[(2′R,4S)-6-(5-methyl-1,3,4-oxadiazol-2-yl)-2,3-dihydrospiro[chromene-4,1′-cyclopropan]-2′-yl]carbonyl}amino)phenyl]butanoic acid] | 2.7 nM | 100%
CNC(=O)c1cc2c(cc1OC)OCC[C@]21C[C@H]1C(=O)Nc1cc(C#N)ccc1CCCC(=O)O [Example 33-1, 4-[4-Cyano-2-({[(2′R,4S)-7-methoxy-6-(methylcarbamoyl)-2,3-dihydrospiro[chromene-4,1′-cyclopropan]-2′-yl]carbonyl}amino)phenyl]butanoic acid] | 10 nM | 98%
N#Cc1ccc(CCCC(=O)O)c(NC(=O)[C@@H]2C[C@]23CCOc2ccc(C(=O)NC4CCC4)cc23)c1 [Example 2-38, 4-[4-Cyano-2-({[(2′R,4S)-6-(cyclobutylcarbamoyl)-2,3-dihydrospiro[chromene-4,1′-cyclopropan]-2′-yl]carbonyl}amino)phenyl]butanoic acid] | 4.7 nM | 100%

Continued by falling IC50 (rat EP4 receptor), values first:

IC50 (rat EP4 receptor) | Remaining rate (%) [1] | SMILES
17 nM | 81% | N#Cc1ccc(CCCC(=O)O)c(NC(=O)[C@@H]2C[C@]23CCOc2ccc(-c4ccccc4)cc23)c1 [Example 7-1, 4-[4-Cyano-2-({[(2′R,4S)-6-phenyl-2,3-dihydrospiro[chromene-4,1′-cyclopropan]-2′-yl]carbonyl}amino)phenyl]butanoic acid]
8.4 nM | 100% | COCCNC(=O)c1cc2c(cc1OC)OCC[C@]21C[C@H]1C(=O)Nc1cc(C#N)ccc1CCCC(=O)O [Example 33-2, 4-{4-Cyano-2-[({(2′R,4S)-7-methoxy-6-[(2-methoxyethyl)carbamoyl]-2,3-dihydrospiro[chromene-4,1′-cyclopropan]-2′-yl}carbonyl)amino]phenyl}butanoic acid]
7.2 nM | 100% | N#Cc1ccc(CCCC(=O)O)c(NC(=O)[C@@H]2C[C@]23CCOc2ccc(C(=O)NC4CCOCC4)cc23)c1 [Example 2-40, 4-[4-Cyano-2-({[(2′R,4S)-6-(tetrahydro-2H-pyran-4-ylcarbamoyl)-2,3-dihydrospiro[chromene-4,1′-cyclopropan]-2′-yl]carbonyl}amino)phenyl]butanoic acid]
5.4 nM | 69% | COCCNC(=O)c1ccc2c(c1)[C@@]1(C[C@H]1C(=O)Nc1cc(C#N)ccc1CCCC(=O)O)CC2(C)C [Example 38-1, 4-[4-Cyano-2-({[(1S,2R)-6′-[(2-methoxyethyl)carbamoyl]-3′,3′-dimethyl-2′,3′-dihydrospiro[cyclopropane-1, 1′-inden]-2-yl]carbonyl}amino)phenyl]butanoic acid]
4 nM | 94% | N#Cc1ccc(CCCC(=O)O)c(NC(=O)[C@@H]2C[C@]23CCOc2ccc(C(=O)NC4CC4)cc23)c1 [Example 2-10, 4-[4-cyano-2-({[(2′R,4S)-6-(cyclopropylcarbamoyl)-2,3-dihydrospiro[chromene-4,1′-cyclopropan]-2′-yl]carbonyl}amino)phenyl]butanoic acid]
3.8 nM | 72% | N#Cc1ccc(CCCC(=O)O)c(NC(=O)[C@@H]2C[C@]23CCOc2ccc(-c4cccnc4)cc23)c1 [Example 7-3, 4-[4-Cyano-2-({[(2′R,4S)-6-(3-pyridinyl)-2,3-dihydrospiro[chromene-4,1′-cyclopropan]-2′-yl]carbonyl}amino)phenyl]butanoic acid]
3.7 nM | 85% | N#Cc1ccc(CCCC(=O)O)c(NC(=O)[C@@H]2C[C@]23CCOc2ccc(C(=O)NCC(F)F)cc23)c1 [Example 2-32, 4-{4-Cyano-2-[({(2′R,4S)-6-[(2,2-difluoroethyl)carbamoyl]-2,3-dihydrospiro[chromene-4,1′-cyclopropan]-2′-yl}carbonyl)amino]phenyl}butanoic acid]
3.4 nM | 97% | N#Cc1ccc(CCCC(=O)O)c(NC(=O)[C@@H]2C[C@]23CCOc2ccc(C(=O)Nc4ccon4)cc23)c1 [Example 2-37, 4-[4-Cyano-2-({[(2′R,4S)-6-(1,2-oxazol-3-ylcarbamoyl)-2,3-dihydrospiro[chromene-4,1′-cyclopropan]-2′-yl]carbonyl}amino)phenyl]butanoic acid]
3 nM | 90% | CCNC(=O)c1ccc2c(c1)[C@]1(CCO2)C[C@H]1C(=O)Nc1cc(C#N)ccc1CCCC(=O)O [Example 2-46, 4-[4-Cyano-2-({[(2′R,4S)-6-(ethylcarbamoyl)-2,3-dihydrospiro[chromene-4,1′-cyclopropan]-2′-yl]carbonyl}amino)phenyl]butanoic acid]
2.5 nM | 94% | CNC(=O)c1ccc2c(c1)[C@]1(CCO2)C[C@H]1C(=O)Nc1cc(C#N)ccc1CCCC(=O)O [Example 1, 4-[4-Cyano-2-({[(2′R,4S)-6-(methylcarbamoyl)-2,3-dihydrospiro[chromene-4,1′-cyclopropan]-2′-yl]carbonyl}amino)phenyl]butanoic acid]
1.3 nM |  | Cn1cc(NC(=O)c2ccc3c(c2)[C@]2(CCO3)C[C@H]2C(=O)Nc2cc(C#N)ccc2CCCC(=O)O)cn1 [Example 2-5]
